Reference: ChEMBL document CHEMBL1201862, “PubChem BioAssay data set” (2004)
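Growth conditions: 96-well plates. Treatment: test compound, 48 hours, 5 concentrations. Analysis: linear interpolation between bracketing concentrations; unreached endpoints set to highest concentration. Abbreviation: GI50, concentration required for 50% inhibition of growth.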 The source made the active and inactive calls. Cut-off read from the data, not from the text of the source: active = GI50 up to about 1.1 µM and inactive = higher.

What was measured:
Experiment in all cases: DTP human tumour cell line panel, 48 h
DU-145 = test system: DU-145
RXF 393 = test system: RXF 393
U-251 = test system: U-251
IGROV-1 = test system: IGROV-1
HCT-15 = test system: HCT-15
786-0 = test system: 786-0
MDA-MB-435 = test system: MDA-MB-435
OVCAR-8 = test system: OVCAR-8
HOP-92 = test system: HOP-92
SR = test system: SR
HCT-116 = test system: HCT-116
SF-268 = test system: SF-268
SF-295 = test system: SF-295
TK-10 = test system: TK-10
OVCAR-5 = test system: OVCAR-5
SK-OV-3 = test system: SK-OV-3
CAKI-1 = test system: CAKI-1
MDA-MB-231 = test system: MDA-MB-231
RPMI-8226 = test system: RPMI-8226
LOX IMVI = test system: LOX IMVI

SMILES	GI50 (DU-145)	GI50 (RXF 393)	GI50 (U-251)	GI50 (IGROV-1)	GI50 (HCT-15) [µM]	GI50 (786-0)	GI50 (MDA-MB-435)	GI50 (OVCAR-8)	GI50 (HOP-92)	GI50 (SR)	GI50 (HCT-116)	GI50 (SF-268)	GI50 (SF-295)	GI50 (TK-10)	GI50 (OVCAR-5)	GI50 (SK-OV-3)	GI50 (CAKI-1)	GI50 (MDA-MB-231)	GI50 (RPMI-8226)	GI50 (LOX IMVI)
O=C(/C=C1\C[C@H]2C=Nc3ccccc3C(=O)N2C1)NCCCCCNC(=O)/C=C1\C[C@H]2C=Nc3ccccc3C(=O)N2C1	13.5 µM (inactive)	3.56 µM (inactive)	3.03 µM (inactive)	11 µM (inactive)	3.44	1.84 µM (inactive)	4.7 µM (inactive)	2.99 µM (inactive)	4.63 µM (inactive)	1.6 µM (inactive)	6.14 µM (inactive)	6.49 µM (inactive)	18.3 µM (inactive)	4.32 µM (inactive)	18.8 µM (inactive)	16.2 µM (inactive)	2.6 µM (inactive)	16.2 µM (inactive)	4.28 µM (inactive)	1.98 µM (inactive)
COc1c(O)cc(O)c2c(=O)cc(-c3ccccc3)oc12 [WOGONIN]	23.6 µM (inactive)	17.5 µM (inactive)	63.2 µM (inactive)	29.4 µM (inactive)	35.1	51.9 µM (inactive)	65.5 µM (inactive)	52.4 µM (inactive)	> 100 µM (inactive)	22.1 µM (inactive)	24.3 µM (inactive)	37.9 µM (inactive)	34.5 µM (inactive)	60.8 µM (inactive)	49.7 µM (inactive)	77.8 µM (inactive)	48.6 µM (inactive)	> 100 µM (inactive)	17.5 µM (inactive)	22.4 µM (inactive)
CCOC(=O)C1c2[nH]c3ccccc3c2CCN1C(=O)c1ccc(OC)o1 (stereo not given)	> 10 µM (inactive)	> 10 µM (inactive)	> 10 µM (inactive)	> 10 µM (inactive)	> 10	> 10 µM (inactive)	> 10 µM (inactive)	> 10 µM (inactive)	> 10 µM (inactive)	> 10 µM (inactive)		> 10 µM (inactive)	> 10 µM (inactive)	> 10 µM (inactive)	> 10 µM (inactive)	> 10 µM (inactive)	> 10 µM (inactive)	> 10 µM (inactive)	> 10 µM (inactive)	> 10 µM (inactive)
CC(C(O)c1ccccc1)C(O)(C(F)(F)F)C(F)(F)F (stereo not given)	> 100 µM (inactive)	> 100 µM (inactive)	> 100 µM (inactive)	84.5 µM (inactive)	> 100	> 100 µM (inactive)	> 100 µM (inactive)	> 100 µM (inactive)	50.8 µM (inactive)	> 100 µM (inactive)	> 100 µM (inactive)	> 100 µM (inactive)	> 100 µM (inactive)	> 100 µM (inactive)	> 100 µM (inactive)	> 100 µM (inactive)	> 100 µM (inactive)	> 100 µM (inactive)	> 100 µM (inactive)	> 100 µM (inactive)
CCN(CC)C(=S)SS(=O)(=O)c1ccc(NC(C)=O)cc1	22.6 µM (inactive)	15.2 µM (inactive)	18 µM (inactive)		30.9	17.5 µM (inactive)	17.1 µM (inactive)	15.7 µM (inactive)	19.8 µM (inactive)	0.0226 µM (active)	16 µM (inactive)	28.9 µM (inactive)	28.2 µM (inactive)	32.6 µM (inactive)	24.5 µM (inactive)	40.5 µM (inactive)	18.8 µM (inactive)	17 µM (inactive)	18.5 µM (inactive)	15.9 µM (inactive)
O=C(C[n+]1ccccc1)N/N=C(\C(=O)NC1=C(Cl)C(=O)c2ccccc2C1=O)c1c(O)c2ccc(O)cc2oc1=O	3.59 µM (inactive)	9.35 µM (inactive)	5.07 µM (inactive)	2.41 µM (inactive)	2.42	4.93 µM (inactive)	2.01 µM (inactive)	3.66 µM (inactive)	14.8 µM (inactive)	4.19 µM (inactive)	2.99 µM (inactive)	9.77 µM (inactive)	3.05 µM (inactive)	23.7 µM (inactive)	12.3 µM (inactive)	14.1 µM (inactive)	6.64 µM (inactive)	7.73 µM (inactive)	5.96 µM (inactive)	2.63 µM (inactive)
CC1(c2cccc(Cl)c2)CC(c2cccc(Cl)c2)=C(C#N)C(=C(C#N)C#N)N1 (stereo not given)	15.8 µM (inactive)	14.8 µM (inactive)	16.4 µM (inactive)	16.7 µM (inactive)	16	15.7 µM (inactive)	17 µM (inactive)	17.9 µM (inactive)	6.19 µM (inactive)	14.3 µM (inactive)	16.6 µM (inactive)	4.62 µM (inactive)	16 µM (inactive)	17.7 µM (inactive)	24.2 µM (inactive)	18.7 µM (inactive)	16.5 µM (inactive)	22.3 µM (inactive)	5.28 µM (inactive)	19.8 µM (inactive)
COc1ccc(C(C#N)NCCCCCCNC(C#N)c2ccc(OC)cc2)cc1 (stereo not given)	> 100 µM (inactive)	> 100 µM (inactive)	> 100 µM (inactive)	> 100 µM (inactive)	> 100	> 100 µM (inactive)	> 100 µM (inactive)	> 100 µM (inactive)	> 100 µM (inactive)	> 100 µM (inactive)	> 100 µM (inactive)	> 100 µM (inactive)	> 100 µM (inactive)	> 100 µM (inactive)	> 100 µM (inactive)	> 100 µM (inactive)	> 100 µM (inactive)	> 100 µM (inactive)	> 100 µM (inactive)	> 100 µM (inactive)
O=C(NCCCNCCN1C(=O)c2cccc3cc([N+](=O)[O-])cc(c23)C1=O)c1cc(-c2ccccc2)nc2ccccc12	5.21 µM (inactive)	1.49 µM (inactive)	2.09 µM (inactive)	2.54 µM (inactive)	3.03	1.45 µM (inactive)	1.46 µM (inactive)	0.933 µM (active)	3.18 µM (inactive)	0.426 µM (active)	1.23 µM (inactive)	1.39 µM (inactive)	3.08 µM (inactive)	7.74 µM (inactive)	3.94 µM (inactive)	8.91 µM (inactive)	6.07 µM (inactive)	3.01 µM (inactive)	1.13 µM (inactive)	1.04 µM (active)
Cc1ccc(C(=O)/C(C#N)=C/Nc2c(C)n(C)n(-c3ccccc3)c2=O)cc1	> 100 µM (inactive)	> 100 µM (inactive)	> 100 µM (inactive)	> 100 µM (inactive)	> 100	> 100 µM (inactive)	> 100 µM (inactive)		46.2 µM (inactive)	> 100 µM (inactive)	> 100 µM (inactive)	> 100 µM (inactive)	> 100 µM (inactive)	> 100 µM (inactive)	> 100 µM (inactive)	> 100 µM (inactive)	> 100 µM (inactive)	> 100 µM (inactive)	> 100 µM (inactive)	> 100 µM (inactive)
CCNC(=S)N/N=C1\C(=O)Nc2ccc([N+](=O)[O-])cc21	33 µM (inactive)	26 µM (inactive)	29.5 µM (inactive)	31.6 µM (inactive)	49.3	19.1 µM (inactive)	88.1 µM (inactive)	34.7 µM (inactive)	34 µM (inactive)	31.3 µM (inactive)	27.7 µM (inactive)	44.7 µM (inactive)	29.3 µM (inactive)	18.2 µM (inactive)	> 100 µM (inactive)	39.4 µM (inactive)	11.9 µM (inactive)	35.3 µM (inactive)	> 100 µM (inactive)	61.4 µM (inactive)
O=C1C(Cl)=C(N2C(=O)CCCC2=O)C(=O)c2ccccc21	16.6 µM (inactive)	15.7 µM (inactive)	26 µM (inactive)	15.8 µM (inactive)	11.6	16.9 µM (inactive)	21.8 µM (inactive)	11.7 µM (inactive)	3.46 µM (inactive)	21.5 µM (inactive)	16.8 µM (inactive)	23.9 µM (inactive)	82.2 µM (inactive)	17.5 µM (inactive)	18 µM (inactive)	> 100 µM (inactive)	14 µM (inactive)	20 µM (inactive)	7.45 µM (inactive)	20.6 µM (inactive)
COC(=O)/C=C1/OC(c2ccccc2)=C(Br)C1=O	87.1 µM (inactive)	48.2 µM (inactive)	23.2 µM (inactive)	> 10 µM (inactive)	10.6	25 µM (inactive)	38 µM (inactive)	29.9 µM (inactive)	64.4 µM (inactive)	20.8 µM (inactive)	17.9 µM (inactive)	49.4 µM (inactive)		80.5 µM (inactive)	> 100 µM (inactive)	> 100 µM (inactive)	24.8 µM (inactive)	8.07 µM (inactive)	31.4 µM (inactive)	24.3 µM (inactive)
OCC(O)C(O)C(O)C(/C=N\Nc1ncnc2ccc(Br)cc12)=N/Nc1ncnc2ccc(Br)cc12 (stereo not given)	5.65 µM (inactive)	24.9 µM (inactive)	3.34 µM (inactive)	4.09 µM (inactive)		5.47 µM (inactive)	12.9 µM (inactive)	4.01 µM (inactive)	13.8 µM (inactive)	3.17 µM (inactive)	3.09 µM (inactive)	0.423 µM (active)	23 µM (inactive)	80.5 µM (inactive)	16.7 µM (inactive)	6.38 µM (inactive)	4.55 µM (inactive)	2.87 µM (inactive)	> 100 µM (inactive)	5.12 µM (inactive)
